In patent US6949583B2, “Aminoalkoxybenzoyl-benzofuran or benzothiophene derivatives, method of preparing same and compositions containing same” (Sanofi-Synthelabo, priority 2000, dated 2005):
Counter-ions that a name gives are not always drawn.

Row | Compound | melting point [°C]
1 | CCCCc1oc2cc(C)c(C(=O)OC(C)C)cc2c1C(=O)c1ccc(CCCN(CC)CC)cc1 (as salt: oxalate) | 155 to 157
2 | CCCCc1oc2ccc(C(=O)OC)cc2c1C(=O)c1ccc(CC(O)CN(CCCC)CCCC)cc1 (stereo not shown) (as salt: oxalate) | 128 to 130
3 | CCCCN(CCCC)CCCc1ccc(C(=O)c2c(CCC)oc3ccc(C(=O)OC(C)C)cc23)cc1 (as salt: oxalate) | 155 to 157
4 | CCCCc1oc2ccc(C(=O)OC(C)C)cc2c1C(=O)c1cc(C)c(CCCN(CCCC)CCCC)c(C)c1 (as salt: oxalate) | 119 to 121
5 | CCCCCc1oc2ccc(C(=O)OC(C)C)cc2c1C(=O)c1ccc(CCCN(CCCC)CCCC)cc1 (as salt: oxalate) | 124 to 126
6 | CCCCc1oc2ccc(C(=O)OC)cc2c1C(=O)c1ccc(C(O)CN(CCCC)CCCC)cc1 (stereo not shown) (as salt: oxalate) | 124 to 126
7 | CCCCN(CCCC)CCCc1ccc(C(=O)c2c(C3CCCCC3)oc3ccc(C(=O)OC(C)C)cc23)cc1 (as salt: oxalate) | 124 to 126
8 | CCCCN(CCCC)CCCc1ccc(C(=O)c2c(CC(C)C)oc3ccc(C(=O)OC(C)C)cc23)cc1 (as salt: oxalate) | 105 to 107
9 | CCCCc1oc2ccc(C(=O)OC(C)C)cc2c1C(=O)c1ccc(CCCN(CCCC)CCCC)o1 (as salt: oxalate) | 75 to 78
10 | CCCCc1oc2ccc(C(=O)OC(C)C)cc2c1C(=O)c1ccc(CC(O)CN(CCCC)CCCC)cc1 (stereo not shown) (as salt: oxalate) | 90 to 91
11 | CCCCc1oc2ccc(C(=O)OC)cc2c1C(=O)c1ccc(CN(CCCC)CCCC)cc1 (as salt: oxalate) | 96 to 97
12 | CCCCc1oc2ccc(C(=O)OC(C)C)cc2c1C(=O)c1ccc(CN(CCCC)CCCC)cc1 (as salt: oxalate) | 107 to 108
13 | CCCCN(CCCC)CCCc1ccc(C(=O)c2c(CCC(=O)OC)oc3ccc(C(=O)OC(C)C)cc23)cc1 (as salt: oxalate) | 107 to 108
14 | CCCCc1oc2ccc(C(=O)OC(C)C)cc2c1C(=O)c1ccccc1CCCN(CCCC)CCCC (as salt: oxalate) | 85 to 88
15 | CCCCc1oc2ccc(C(=O)OC(C)C)cc2c1C(=O)c1ccc([C@@H]([C@@H](C)O)N(CCCC)CCCC)cc1 (as salt: oxalate) | 150 to 151
16 | CCCCc1oc2ccc(C(=O)OC(C)C)cc2c1C(=O)c1cccc(CCCN(CCCC)CCCC)c1 (as salt: oxalate) | 87 to 90

Row | Compound | melting point [°C]
17 | CCCCc1oc2ccc(C(=O)OC)cc2c1C(=O)c1ccc(CN2CCN(CC)CC2)cc1 (as salt: oxalate) | 220 to 221
18 | CCCCN(CCCC)CCCc1ccc(C(=O)c2c(C)oc3ccc(C(=O)OC(C)C)cc23)cc1 (as salt: oxalate) | 107 to 108
19 | CCCCc1oc2ccc(C(=O)OC(C)C)cc2c1C(=O)c1ccc(CN2CCN(CC)CC2)cc1 (as salt: oxalate) | 222 to 224
20 | CCCCN(CCCC)CCCc1ccc(C(=O)c2c(CCCC(=O)OC)oc3ccc(C(=O)OC(C)C)cc23)cc1 (as salt: oxalate) | 105
21 | CCCCc1oc2ccc(C(=O)OC(C)C)cc2c1C(=O)c1ccc([C@@H](O)[C@@H](C)N(CCCC)CCCC)cc1 (as salt: oxalate) | 107 to 108
22 | CCCCc1sc2ccc(C(=O)OC(C)C)cc2c1C(=O)c1ccc(CCCN(CCCC)CCCC)cc1 (as salt: oxalate) | 86 to 89
23 | CCCCc1oc2ccc(C(=O)OC(C)C)cc2c1C(=O)c1ccc(C(C)(C)CCN(CCCC)CCCC)cc1 (as salt: oxalate) | 92 to 93
24 | CCCCc1oc2ccc(C(=O)OC(C)C)cc2c1C(=O)c1ccc(COCCN(CCCC)CCCC)cc1 (as salt: oxalate) | 73
25 | CCCCc1oc2ccc(C(=O)OC(C)C)cc2c1C(=O)c1ccc(CCCN(CCCC)CCCC)s1 (as salt: oxalate) | 100
26 | CCCCc1oc2ccc(C(=O)OC(C)C)cc2c1C(=O)c1ccc(COCCCN(CCCC)CCCC)cc1 (as salt: oxalate) | 73 to 74
27 | CCCCc1oc2ccc(C(=O)OC(C)C)cc2c1C(=O)c1ccc(C(O)CN(CCCC)CCCC)cc1 (stereo not shown) (as salt: oxalate) | 134 to 135
28 | CCCCN(CCCC)COCc1ccc(C(=O)c2c(C(C)C)oc3ccc(C(=O)OC(C)C)cc23)cc1 (as salt: oxalate) | 106 to 108
29 | CCCCc1oc2ccc(C(=O)OC(C)C)cc2c1C1(c2ccc(CCCN(CCCC)CCCC)cc2)OCCO1 (as salt: oxalate) | 106 to 108
30 | CCCCc1oc2ccc(C(=O)OC(C)C)cc2c1C(=O)c1cc(Cl)c(CCCN(CCCC)CCCC)c(Cl)c1 (as salt: oxalate) | 87 to 89
31 | CCCCc1oc(C)c(C(=O)OCC)c1C(=O)c1ccc(CCCN(CCCC)CCCC)cc1 (as salt: oxalate) | 133 to 135
